Test results from the NIST ThermoML archive (doi:10.1016/j.fluid.2015.12.029).

Columns and labels:
[1] = Boiling temperature at pressure P; settings: Liquid, Ebulliometric method (Recirculating still)
[2] = Liquid; for mass density: 298.15 K, 101.33 kPa, Vibrating tube method; for vapor or sublimation pressure: Ebulliometric method (Recirculating still)

CO [methanol]
Settings	Boiling temperature at pressure P [°C]	vapor or sublimation pressure [kPa]
[1], 40 kPa	42.34	–
[1], 53.33 kPa	48.83	–
[1], 66.66 kPa	54.08	–
[1], 79.99 kPa	58.51	–
[1], 93.32 kPa	62.36	–
[1], 101.3 kPa	64.5	–
[2], 315.49 K	–	40
[2], 321.98 K	–	53.33
[2], 327.23 K	–	66.66
[2], 331.66 K	–	79.99
[2], 335.51 K	–	93.32
[2], 337.6 K	–	101.3

Settings	mass density [kg/m3]
[2]	786.56

COC(C)=O [methyl ethanoate]
Settings	Boiling temperature at pressure P [°C]	vapor or sublimation pressure [kPa]
[1], 40 kPa	32.50	–
[1], 53.33 kPa	39.53	–
[1], 66.66 kPa	45.30	–
[1], 79.99 kPa	50.21	–
[1], 93.32 kPa	54.53	–
[1], 101.3 kPa	56.89	–
[2], 305.65 K	–	40
[2], 312.68 K	–	53.33
[2], 318.45 K	–	66.66
[2], 323.36 K	–	79.99
[2], 327.68 K	–	93.32
[2], 330.04 K	–	101.3

Settings	mass density [kg/m3]
[2]	927.1

CCOC(=O)C(C)O (racemic) [DL-ethyl lactate]
Settings	Boiling temperature at pressure P [°C]	vapor or sublimation pressure [kPa]
[1], 40 kPa	123.76	–
[1], 53.33 kPa	132.34	–
[1], 66.66 kPa	139.29	–
[1], 79.99 kPa	145.19	–
[1], 93.32 kPa	150.32	–
[1], 101.3 kPa	153.0	–
[2], 396.91 K	–	40
[2], 405.49 K	–	53.33
[2], 412.44 K	–	66.66
[2], 418.34 K	–	79.99
[2], 423.47 K	–	93.32
[2], 426.1 K	–	101.3

Settings	mass density [kg/m3]
[2]	1028.08
